Data reported in patent US8598175B2, “Heteroarylamide pyrimidone derivatives” (Sanofi, priority 2007, dated 2013).

How the values were obtained:
GSK3β = GSK3β (Homo sapiens, UniProt P49841); assay: Inhibitory activity against GSK3β (33P-ATP phosphorylation of prephosphorylated GS1 peptide, two protocols); assay type: biochemical; conditions: first or second protocol not specified
Experimental: Inhibitory Activity of the Medicament of the Present Invention Against GSK3β
Two different protocols can be used.
In a first protocol: 7.5 μM of prephosphorylated GS1 peptide and 10 μM ATP (containing 300,000 cpm of ^33P-ATP) were incubated in 25 mM Tris-HCl, pH 7.5, 0.6 mM DTT, 6 mM MgCl2, 0.6 mM EGTA, 0.05 mg/ml BSA buffer for 1 hour at room temperature in the presence of GSK3beta (total reaction volume: 100 microliters).
In a second protocol: 4.1 μM of prephosphorylated GS1 peptide and 42 μM ATP (containing 260,000 cpm ^33P-ATP) were incubated in 80 mM Mes-NaOH, pH 6.5, 1 mM Mg acetate, 0.5 mM EGTA, 5 mM 2-mercaptoethanol, 0.02% Tween 20, 10% glycerol buffer for 2 hours at room temperature in the presence of GSK3beta.
Inhibitors were solubilized in DMSO (final solvent concentration in the reaction medium, 1%).
The reaction was stopped with 100 microliters of a solution made of 25 g polyphosphoric acid (85% P2O5), 126 ml 85% H3PO4, […] to 500 ml and then diluted to 1:100 before use. An aliquot of the reaction mixture was then transferred to Whatman P81 cation exchange filters and rinsed with the solution described above. Incorporated ^33P radioactivity was determined by liquid scintillation spectrometry.
The phosphorylated GS-1 peptide had the following sequence: NH2-[…](P)EDEE-COOH. SEQ ID NO: 1 (Woodgett, J. R. (1989) Analytical Biochemistry 180, 237-241.

Sequence of GSK3β (P49841 whole entry): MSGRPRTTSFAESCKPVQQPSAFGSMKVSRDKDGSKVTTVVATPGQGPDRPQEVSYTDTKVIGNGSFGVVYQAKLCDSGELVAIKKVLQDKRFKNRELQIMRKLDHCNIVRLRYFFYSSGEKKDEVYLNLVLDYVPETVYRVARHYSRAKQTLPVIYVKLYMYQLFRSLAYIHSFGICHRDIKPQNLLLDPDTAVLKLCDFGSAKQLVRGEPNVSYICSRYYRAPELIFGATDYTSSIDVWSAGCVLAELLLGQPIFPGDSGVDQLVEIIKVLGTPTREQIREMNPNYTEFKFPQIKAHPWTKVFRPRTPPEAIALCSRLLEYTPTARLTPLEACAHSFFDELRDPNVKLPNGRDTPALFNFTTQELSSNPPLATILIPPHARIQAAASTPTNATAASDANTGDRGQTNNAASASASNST

## Cn1c(CNC(=O)c2ccc3ncccc3n2)nc(-c2ccncn2)cc1=O [compound 4, [1,5]Naphthyridine-2-carboxylic acid (1-methyl-6-oxo-1,6-dihydro-[4,4]bipyrimidinyl-2-ylmethyl)-amide]
other
  melting point: 317 to 319 °C
GSK3β
  IC50: 5 nM
